Values of other authors, collected in US20050201949A1, “Pharmaceutical formulations” (priority 2003, published 2005).
Structures can show the parent of a compound that is named as a salt.

Settings: solid tablets with a lactose excipient; Maillard reaction postulated

## CNCCC(Oc1ccc(C(F)(F)F)cc1)c1ccccc1 (stereo not shown) [fluoxetine hydrochloride]
  Degradation in the presence of lactose excipient: undergoes degradation
